Calls of active or inactive are those of the source. The rule behind the calls is not given here.
What was measured:
HOS-TE85 [1] = experiment: Induction of apoptosis in human MNNG cells assessed as viable cells at 2.5 uM measured after 48 hrs by Alexa Fluor 488 Annexin V/propidium iodide staining based flow cytometry (reference value: 98.8%); format: functional; settings: read-out: Activity
[2] = Toxicity in human MNNG cell xenografted Balb/c mouse assessed as reduction in Cr level at 15 to 45 mg/kg, iv administered every 2 days for 3 weeks and measured post last dose; format: organism-based; settings: in vivo, 504 h, dose 15-45 mg/kg, time 21 day
HOS-TE85 [3] = experiment: Induction of apoptosis in human MNNG cells assessed as early apoptotic cells at 2.5 uM measured after 48 hrs by Alexa Fluor 488 Annexin V/propidium iodide staining based flow cytometry (reference value: 0.69%); format: functional
HOS-TE85 [4] = experiment: Cell cycle arrest in human MNNG cells assessed as accumulation of cells at S phase at 1 uM measured after 24 hrs by propidium iodide staining based flow cytometry (reference value: 39.4%); format: functional
HOS-TE85 [5] = experiment: Induction of reactive oxygen species generation in human MNNG cells measured after 3 hrs by DCFH-DA probe based fluorescence assay; format: functional, cell-based; settings: dose 1-10 µM
HOS-TE85 [6] = experiment: Induction of apoptosis in human MNNG cells assessed as necrotic cells at 1 uM measured after 48 hrs by Alexa Fluor 488 Annexin V/propidium iodide staining based flow cytometry (reference value: 0.04%); format: functional
HOS-TE85 [7] = experiment: Induction of reactive oxygen species generation in human MNNG cells at 5 to 10 uM measured after 3 hrs in presence of dicoumarol by DCFH-DA probe based fluorescence assay; format: functional, cell-based; settings: dose 5-10 µM
HOS-TE85 [8] = experiment: Cell cycle arrest in human MNNG cells assessed as accumulation of cells at S phase at 2.5 uM measured after 24 hrs by propidium iodide staining based flow cytometry (reference value: 39.4%); format: functional
HOS-TE85 [9] = experiment: Induction of apoptosis in human MNNG cells assessed as viable cells at 1 uM measured after 48 hrs by Alexa Fluor 488 Annexin V/propidium iodide staining based flow cytometry (reference value: 98.8%); format: functional; settings: read-out: Activity
HOS-TE85 [10] = experiment: Cytotoxicity against human MNNG cells assessed as cell growth inhibition at 10 uM measured after 72 hrs by MTT assay relative to control; format: functional; settings: read-out: GI
HOS-TE85 [11] = experiment: Induction of apoptosis in human MNNG cells assessed as necrotic cells at 5 uM measured after 48 hrs by Alexa Fluor 488 Annexin V/propidium iodide staining based flow cytometry (reference value: 0.04%); format: functional
HOS-TE85 [12] = experiment: Cell cycle arrest in human MNNG cells assessed as accumulation of cells at G2/M phase at 10 uM measured after 24 hrs by propidium iodide staining based flow cytometry (reference value: 39.4%); format: functional
[13] = Toxicity in human MNNG cell xenografted Balb/c mouse assessed as mortality at 15 to 45 mg/kg, iv administered every 2 days for 3 weeks and measured every other day during compound dosing; format: organism-based; settings: in vivo, 504 h, dose 15-45 mg/kg, time 21 day
HOS-TE85 [14] = experiment: Cell cycle arrest in human MNNG cells assessed as accumulation of cells at G0/G1 phase at 2.5 uM measured after 24 hrs by propidium iodide staining based flow cytometry (reference value: 51.4%); format: functional
HOS-TE85 [15] = experiment: Cell cycle arrest in human MNNG cells assessed as accumulation of cells at G2/M phase at 5 uM measured after 24 hrs by propidium iodide staining based flow cytometry (reference value: 39.4%); format: functional
[16] = Toxicity in human MNNG cell xenografted Balb/c mouse assessed as effect on lung at 15 to 45 mg/kg, iv administered every 2 days for 3 weeks and measured post last dose by H and E staining based microscopy; format: organism-based; settings: in vivo, 504 h, dose 15-45 mg/kg, time 21 day
HOS-TE85 [17] = experiment: Cell cycle arrest in human MNNG cells assessed as accumulation of cells at G0/G1 phase at 5 uM measured after 24 hrs by propidium iodide staining based flow cytometry (reference value: 51.4%); format: functional
HOS-TE85 [18] = experiment: Cytotoxicity against human MNNG cells assessed as cell growth inhibition at 1 uM measured after 72 hrs by MTT assay relative to control; format: functional; settings: read-out: GI
HOS-TE85 [19] = experiment: Induction of apoptosis in human MNNG cells assessed as necrotic cells at 2.5 uM measured after 48 hrs by Alexa Fluor 488 Annexin V/propidium iodide staining based flow cytometry (reference value: 0.04%); format: functional
HOS-TE85 [20] = experiment: Cell cycle arrest in human MNNG cells assessed as accumulation of cells at G0/G1 phase at 1 uM measured after 24 hrs by propidium iodide staining based flow cytometry (reference value: 51.4%); format: functional
[21] = Toxicity in human MNNG cell xenografted Balb/c mouse assessed as effect on kidney at 15 to 45 mg/kg, iv administered every 2 days for 3 weeks and measured post last dose by H and E staining based microscopy; format: organism-based; settings: in vivo, 504 h, dose 15-45 mg/kg, time 21 day
HOS-TE85 [22] = experiment: Induction of apoptosis in human MNNG cells assessed as necrotic cells at 10 uM measured after 48 hrs by Alexa Fluor 488 Annexin V/propidium iodide staining based flow cytometry (reference value: 0.04%); format: functional
HOS-TE85 [23] = experiment: Antitumor activity against human MNNG cells xenografted in Balb/c mouse assessed as tumor growth inhibition at 15 mg/kg, iv administered every 2 days for 3 weeks and measured daily during compound dosing relative to control; format: functional; settings: HOS-TE85, 504 h, time 21 day, read-out: TGI
[24] = Toxicity in human MNNG cell xenografted Balb/c mouse assessed as reduction in AST level at 15 to 45 mg/kg, iv administered every 2 days for 3 weeks and measured post last dose; format: organism-based; settings: in vivo, 504 h, dose 15-45 mg/kg, time 21 day
HOS-TE85 [25] = experiment: Induction of apoptosis in human MNNG cells assessed as late apoptotic cells at 2.5 uM measured after 48 hrs by Alexa Fluor 488 Annexin V/propidium iodide staining based flow cytometry (reference value: 0.51%); format: functional

Cc1cc2c(cc1C)-c1oc(CN3CCOCC3)c(C)c1C(=O)C2=O
viability at 2.5 µM (HOS-TE85 [1]): 73.6%
Activity [2]: Toxic
Activity (HOS-TE85 [3]): 10.6%
Activity (HOS-TE85 [4]): 41.1%
Activity (HOS-TE85 [5]): Dose-dependent-effect
Activity (HOS-TE85 [6]): 0.38%
Activity (HOS-TE85 [7]): inactive
Activity (HOS-TE85 [8]): 37.8%
viability at 1 µM (HOS-TE85 [9]): 89.3%
inhibition of growth at 10 µM (HOS-TE85 [10]): 99.5%
Activity (HOS-TE85 [11]): 0.08%
Activity (HOS-TE85 [12]): 10.2%
Activity [13]: Non-toxic
Activity (HOS-TE85 [14]): 53%
Activity (HOS-TE85 [15]): 6.3%
Activity [16]: Non-toxic
Activity (HOS-TE85 [17]): 55.9%
inhibition of growth at 1 µM (HOS-TE85 [18]): 38.2%
Activity (HOS-TE85 [19]): 0.55%
Activity (HOS-TE85 [20]): 49.7%
Activity [21]: Non-toxic
Activity (HOS-TE85 [22]): 0.42%
inhibition in vivo at 15 mg/kg (HOS-TE85 [23]): 48.2%
Activity [24]: Toxic
Activity (HOS-TE85 [25]): 15.2%
